Measurements from PubChem BioAssay (NCI).
Several values for one entry are separate records, joined by “and”; a condition that tells them apart may be missing. Equal entries are not always repeated.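 96-well plates; 48 h exposure; 5 concentrations. Endpoints by linear interpolation between flanking doses. Not reached: highest tested concentration assigned. GI50 is the concentration that inhibits growth by half. The concentration for full growth arrest is given as TGI.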

Assays:
Assay in all cases: growth of human tumour cells (NCI), 48 h
T-47D breast = test system: T-47D breast
SF-295 CNS = test system: SF-295 CNS
RXF 393 renal = test system: RXF 393 renal
SF-539 CNS = test system: SF-539 CNS
SR leukemia = test system: SR leukemia
HT29 colon = test system: HT29 colon
SK-MEL-28 melanoma = test system: SK-MEL-28 melanoma
U251 CNS = test system: U251 CNS

Compound	GI50 (T-47D breast)	TGI (T-47D breast)	GI50 (SF-295 CNS)	TGI (SF-295 CNS)	GI50 (RXF 393 renal)	TGI (RXF 393 renal)	GI50 (SF-539 CNS)	TGI (SF-539 CNS)	GI50 (SR leukemia)	TGI (SR leukemia) [µM]	GI50 (HT29 colon)	TGI (HT29 colon) [µM]	GI50 (SK-MEL-28 melanoma)	TGI (SK-MEL-28 melanoma) [µM]	GI50 (U251 CNS)	TGI (U251 CNS)
COc1cc2c(cc1Nc1nc(N3CCc4ccccc43)c3cc[nH]c3n1)N(C(=O)CN(C)C)CC2	7.91 µM	16.7 µM	4.79 µM	11.8 µM	3.55 µM	8.89 µM	4.88 µM	10.8 µM	0.517 µM	1.28	0.364 µM	0.731	1.4 µM	3.38	4.67 µM	9.83 µM
O=C1Oc2ccccc2C(=O)/C1=C1/C=C(c2ccccc2)SS1	–	> 100 µM	–	> 100 µM	–	> 100 µM	–	> 100 µM	–	61.3	–	> 100	–	> 100	–	> 100 µM
COc1cc2c(N3CCN(C(=O)Nc4ccc(OC(C)C)cc4)CC3)ncnc2cc1OCCCN1CCCCC1	16.6 µM	61.5 µM	12.5 µM	27.9 µM	8.61 µM	23.6 µM	6.43 µM	22.3 µM	9.55 µM	46.2	6.59 µM	26.4	15.1 µM	30.9	14 µM	41.8 µM
CNCc1cccc2c1OCCOCCOCCN(C)S(=O)(=O)c1ccc(cc1)-c1cnc(N)c(n1)C(=O)N2	2.25 µM	6.15 µM	3.35 µM	13.3 µM	0.614 µM	2.58 µM	0.534 µM	1.98 µM	0.248 µM	2.97	1.08 µM	4.92	1.74 µM	3.56	1.53 µM	3.37 µM
O=c1c2ccccc2sc2c(CO)ccc(NCCN3CCCCC3)c12	–	20.6 µM	–	17.4 µM	–	7.72 µM	–	16.2 µM	–	7.71	–	11.9	–	8.54	–	14.2 µM
CC1(C)OC[C@@H]([C@@]2(CO[Si](c3ccccc3)(c3ccccc3)C(C)(C)C)CC=CC(=O)O2)O1	8.03 µM	> 100 µM	5.43 µM	25.9 µM	9.82 µM	> 100 µM	3.68 µM	9.82 µM	4.1 µM	16.6	7.97 µM	> 100	16.7 µM	48.3	5.94 µM	25.4 µM
Cc1nn(-c2ccc(Cl)cc2)c2ncnc(N/N=C/c3ccccc3O)c12	2.09 µM and 0.89 µM	> 100 µM and 23.5 µM	0.841 µM and 1.12 µM	9.93 µM and 24.4 µM	1.97 µM and 0.683 µM	21.7 µM and 11.3 µM	0.484 µM and 0.455 µM	11.5 µM and 5.99 µM	0.445 µM and 0.206 µM	43.5	2.43 µM and 1.62 µM	> 100	1.56 µM and 0.494 µM	> 100	0.508 µM and 0.37 µM	16.8 µM and 16.2 µM
O=C1/C(=C/c2ccc(Cl)c(Cl)c2)CN(C(=O)CCN2CCC(=NO)CC2)C/C1=C\c1ccc(Cl)c(Cl)c1	1.1 µM	3.59 µM	1.05 µM	2.59 µM	1.13 µM	2.59 µM	0.753 µM	1.97 µM	0.353 µM	> 100	0.328 µM	1.25	1.64 µM	3.07	0.268 µM	0.818 µM
CC(Br)C(=O)NC(CO)C(=O)O (stereo not given)	–	> 100 µM	–	> 100 µM	–	> 100 µM	–	> 100 µM	–	> 100	–	> 100	–	> 100	–	> 100 µM
Cn1nccc1Nc1nccc(-c2ccn([C@H](CO)c3ccc(Cl)c(F)c3)c(=O)c2)n1	26.5 µM	> 100 µM	76.3 µM	> 100 µM	20.4 µM	65.5 µM	2.24 µM	6.91 µM	25.1 µM	> 100	0.17 µM	> 100	0.104 µM	> 100	20.8 µM	> 100 µM
Nc1ncc(Cc2ccc3c(c2)OCO3)c(N)n1	–	> 100 µM	–	> 100 µM	–	> 100 µM	–	> 100 µM	–	> 100	–	> 100	–	> 100	–	> 100 µM
CC(C)(CO)CNC(=O)c1ccc2[nH]c(O)c(N=Nc3ccc(S(N)(=O)=O)cc3)c2c1	> 25 µM	> 25 µM	> 25 µM	> 25 µM	> 25 µM	> 25 µM	> 25 µM	> 25 µM	> 25 µM	> 25	> 25 µM	> 25	> 25 µM	> 25	> 25 µM	> 25 µM
COC(=O)OC1C(O[C@H]2C[C@H]3[C@@H]4CC=C5C[C@@H](O)CC[C@]5(C)[C@H]4CC[C@]3(C)[C@H]2[C@H](C)C(=O)CCC(C)C)OCC(O)C1OC1OCC(O)C(O)C1OC(=O)c1ccc(OC)cc1 (stereo not given in full)	0.0209 µM	0.647 µM	< 0.00275 µM	< 0.00275 µM	< 0.00275 µM	0.00948 µM	< 0.00275 µM	0.0091 µM	–	–	0.0415 µM	> 27.5	0.0043 µM	0.0161	0.00297 µM	3.91 µM
COc1ccc(OC)c(NCC(=O)n2nc(/C=C\c3ccc(O)c(OC)c3)cc2/C=C\c2ccc(O)c(OC)c2)c1	3.05 µM	14.6 µM	2.44 µM	6.08 µM	1.51 µM	3.19 µM	1.74 µM	6.15 µM	–	–	1.73 µM	3.81	2.66 µM	12.3	2.36 µM	12 µM
O=[N+]([O-])c1ccc(Cl)c2c([N+](=O)[O-])cccc12	–	> 10 µM	–	> 10 µM	–	> 10 µM	–	5.91 µM	–	> 10	–	> 10	–	> 10	–	–
N#Cc1nc2c(S(=O)(=O)c3ccc(Cl)cc3)c(N)n(Nc3cccc(Cl)c3)c2nc1C#N	0.0258 µM	–	0.0427 µM	0.276 µM	–	–	0.0307 µM	0.179 µM	–	–	0.0295 µM	–	0.00349 µM	0.011	0.0294 µM	–
CCn1cc(C(=O)O)c(=O)c2cc(F)c(N3CCN(S(=O)(=O)c4cccc5ccccc45)CC3)cc21	3.35 µM	> 100 µM	–	–	3.19 µM	11.8 µM	2.43 µM	8.53 µM	–	–	3.95 µM	> 100	6.09 µM	> 100	3.29 µM	> 100 µM
CCCCCCCCCCCC[N+]1(CCCCCCCCCCCC)CCCC(C)C1 (stereo not given)	–	–	0.259 µM	1.29 µM	0.198 µM	0.894 µM	–	–	–	–	0.186 µM	1.09	0.487 µM	1.73	0.327 µM	1.29 µM
CCN1C(=S)N(CC)C2C1NC(=S)N2/N=C/C=C/c1ccccc1OC (stereo not given)	–	–	0.113 µM	9.18 µM	0.092 µM	0.498 µM	0.194 µM	0.541 µM	0.0833 µM	–	0.33 µM	14.4	1.11 µM	> 100	0.354 µM	24.4 µM
CCn1c2c(c3ccccc3c1=O)C(=O)c1ccccc1-2	–	> 100 µM	–	> 100 µM	–	–	–	39.7 µM	–	–	–	> 100	–	> 100	–	> 100 µM
COc1ccc(OC)c(/C=C/c2nc(=S)n(-c3ccc(Cl)cc3)[nH]2)c1	4.51 µM	> 100 µM	4.16 µM	> 100 µM	3.38 µM	38.7 µM	4.05 µM	97.9 µM	–	–	3.67 µM	> 100	11.1 µM	> 100	6.88 µM	> 100 µM
COc1ccc2sc3c(NCCCN)nc4ccccc4c3c(=O)c2c1	1.74 µM	3.65 µM	1.79 µM	3.36 µM	1.5 µM	2.9 µM	1.75 µM	3.17 µM	0.832 µM	3.22	–	–	1.8 µM	3.28	1.62 µM	3.19 µM
FC(F)(F)Oc1cccc(-c2cc(NCCCCCCNc3cc(-c4cccc(OC(F)(F)F)c4)nc4ccc(N5CCCC5)cc34)c3cc(N4CCCC4)ccc3n2)c1	–	–	1.69 µM	3.11 µM	1.65 µM	3.22 µM	1.85 µM	3.33 µM	–	–	2.15 µM	4.35	1.83 µM	3.3	2.11 µM	4.62 µM
COCC([C@@H](O)C(O)C(=O)NCC[C@@H](C)c1nc(/C=C/CC2OC3(C[C@H](O)C2C)OC(C(C[C@H](O)C(C)[C@H](O)C(C)/C=C(C)/C(C)=C/C=C/C(C)=C/C#N)OC)[C@@H](OP(=O)(O)O)C3(C)C)co1)N(C)C (stereo not given in full)	–	0.00195 µM	–	0.000328 µM	–	–	–	0.00034 µM	–	–	–	0.000297	–	0.000323	–	0.000332 µM
COc1ccc(C(=O)c2cc(OC)c(OC)c(OC)c2OC)cc1O	4.64 µM	> 100 µM	1.94 µM	5.18 µM	–	–	3.05 µM	8.96 µM	0.61 µM	> 100	3.8 µM	> 100	6.42 µM	> 100	3.61 µM	> 100 µM
